One compound from patent publication US20220008390A1, “COMPOSITIONS AND METHODS FOR TREATING PAIN AND/OR INFLAMMATION” (Neumentum, Inc., priority 2020, published 2022) can be followed below.

As a reminder, the half-life is how long it takes for the measured level to halve.

The subject of series [1] is rat formalin (1%) model. Put plainly: rat formalin (1%) test. Type of series: in vivo. The note with it: 300 mg/kg, oral, 1 hr pretreatment; 1% formalin intraplantar; FIG. 1. As to the method:
5-Methyl-1H-pyrazole-3-carboxylic acid (4-hydroxy-phenyl)-amide (Compound 1) was tested in the rat formalin (1%) model. The rat formalin test is a preclinical model of human painful conditions.
The formalin test in rat (or mice) is a valid and reliable model of nociception (sensation of pain) and is sensitive for various classes of analgesic drugs. Formalin is a solution of formaldehyde in water. The subcutaneous injection of dilute formalin induces pain in humans and nociceptive (presumptive of pain) behaviors in animals. Since it is painful when it is injected in humans, it is used as an animal model that is considered translational to human pain. […]
In the formalin model, pain response scoring is determined by recording the pain-like behaviors per unit of time including licking, flinching, or raising or shaking of the injected paw. […]
For all Groups, animals were acclimated to the observation chamber for about 15 minutes immediately prior to formalin injection. All animals received an intraplantar subcutaneous injection of 50 μL of 1% formalin into the left hind paw and were then be placed in the observation chamber immediately and formalin-evoked spontaneous nociceptive behaviors in the rats was continuously recorded for 0-60 min using a commercial camcorder. […]

The test system of series [2] is carrageenan-induced paw-edema. In words: rat carrageenan-induced paw-edema model. Type of series: in vivo. As to the method:
5-Methyl-1H-pyrazole-3-carboxylic acid (4-hydroxy-phenyl)-amide (Compound 1) was tested in the rat carrageenan paw-edema model. The rat carrageenan model is a preclinical model of inflammation and anti-inflammatory efficacy. Generally, animals are injected with carrageenan in one hind footpad, usually, half an hour or an hour after they are treated with the test compound while the other footpad is injected with saline as a control. The measurement of paw volume/thickness is then performed at specified time points. The objective of this study was to evaluate the effect of 5-Methyl-1H-pyrazole-3-carboxylic acid (4-hydroxy-phenyl)-amide (Compound 1) on paw edema in rat induced by intra-plantar injection of i-Carrageenan into the left hind paw. [table] On Day 1, carrageenan (1%; 100 uL) was injected subcutaneously into the plantar aspect of the left hindpaw of rats from all groups. Carrageenan injection was performed in conscious rats by restraining with hand and injection was done in the middle of the plantar surface area. The carrageenan solution was vortexed/stirred before each injection. • Route of Administration Oral gavage (PO) • Dosing Regimen: Single dose on Day 1, 1 h before Carrageenan injection. • Method: The day of dosing was designated as Day 1. The animals were not sedated. The volume for each dose was administered over one injection based on the body weight. Paw volume (left hind paw) was measured before carrageenan injection (baseline) and then at 1, 3, 6 and 8 hours (+/−2 minutes) after carrageenan injection (on Day 1). Measurements will be done using a digital plethysmometer as below: In brief, the Plethysmometer is a volume meter, designed for accurate measurements of inflammation-induced swelling. It consists of a water filled cell into which the paw along with the ankle joint is dipped. A transducer records the differences in water level caused by volume displacement and provides LCD readout of the exact volume gain due to swelling. Limb volumes were recorded onto a data sheet as they were measured. One trial per animal were recorded for each time point. […]
For orientation: Carrageenan injected into the paw causes an acute inflammation.

The test system of series [3] is moderate to severe pain after third molar extractions. In words: single-dose clinical study, pain after third molar extractions (pain intensity difference). Format: in vivo, human. As to conditions: 1000 mg single dose, up to 24 hours post-dose; FIG. 3. The method, then: A single-center, randomized, double-blind, placebo- and active-controlled, parallel group study was performed to evaluate the efficacy, safety and pharmacokinetic profile of a single dose of 5-Methyl-1H-pyrazole-3-carboxylic acid (4-hydroxy-phenyl)-amide (Compound 1), over a 24-hour on-site period in moderate to severe pain after third molar extractions in up to 280 male subjects was performed. Healthy male subjects, ages 18 to 45 years, were screened by medical history, vital signs, electrocardiogram (ECG), and clinical laboratory tests. Eligible subjects returned to the clinic on the day of surgery and completed baseline vital signs and clinical laboratory tests. The subjects were randomized such that one group received placebo (Group 1), one group received 1000 mg of Compound 1 (Group 2), and one group received 1000 mg acetaminophen (Group 3). All Groups received the treatment dose within up to 4.5 hours after oral surgery (third molar extraction). Pain intensity/pain relief assessments were collected at 0.25, 0.5, 0.75, 1, 1.5, 2, hourly up to 12, 16, and 24 hours post-dose and at time of first rescue medication (oral ibuprofen). […] This unexpected result makes the compounds of the present invention suitable for chronic pain and/or inflammatory indications as disclosed herein.

Series [4] in a line: pharmacokinetic profile in third molar extraction study. Type of series: in vivo. As to conditions: human; plasma, 1000 mg single dose, male subjects. As to the method: A single-center, randomized, double-blind, placebo- and active-controlled, parallel group study was performed to evaluate the efficacy, safety and pharmacokinetic profile of a single dose of 5-Methyl-1H-pyrazole-3-carboxylic acid (4-hydroxy-phenyl)-amide (Compound 1), over a 24-hour on-site period in moderate to severe pain after third molar extractions in up to 280 male subjects was performed.
The subjects were randomized such that one group received placebo (Group 1), one group received 1000 mg of Compound 1 (Group 2), and one group received 1000 mg acetaminophen (Group 3). All Groups received the treatment dose within up to 4.5 hours after oral surgery (third molar extraction).
Pain intensity/pain relief assessments were collected at 0.25, 0.5, 0.75, 1, 1.5, 2, hourly up to 12, 16, and 24 hours post-dose and at time of first rescue medication (oral ibuprofen). […] This unexpected result makes the compounds of the present invention suitable for chronic pain and/or inflammatory indications as disclosed herein.

Series [5] has as its system mechanical allodynia after severe spinal cord contusion injury. Put plainly: mechanical allodynia after severe spinal cord contusion injury (von Frey, Up-Down). Format: in vivo, rat. The note with it: 10 mg/kg/day by gavage for 7 days; day 28 post surgery. The method, then: 5-Methyl-1H-pyrazole-3-carboxylic acid (4-hydroxy-phenyl)-amide (Compound 1) treatment is tested in the suppression of the development of mechanical allodynia after severe spinal cord contusion injury in the rat. Thirteen week-old female Lewis rats (Charles River, Sulzfeld Germany) are housed under a 12:12 h dark/light regime and allowed free access to water and food. After one week of habituation the animals undergo general anesthesia with a mixture of isoflurane and air (induction: 5% isoflurane, maintenance: 2.2% isofluorane). […] The following groups were used: • Group I: SCI model+vehicle (1.5% Carboxymethylcellulose (CMC) in sterile water) by gavage for seven days • Group 2: SCI model+Compound 1 (10 mg/kg/day) in vehicle by gavage for 7 days The mechanical sensitivity response is measured as the direct pressure stimulus required for eliciting foot withdrawal in nonrestrained conditions. […] The 50% threshold force needed for paw withdrawal is calculated for both hind paws of each rat and the mean value of both hind paws is used to represent the mechanical sensitivity of this animal. The mechanical sensitivity (indicated by the 50% threshold force for paw withdrawals) is determined by the Up-Down method using von Frey filaments. […]

Series [6] has as its system neuropathic pain. In words: 12 week study in subjects with neuropathic pain. The note with it: arms including 1000 and 2000 mg/day. Format: in vivo, human. An excerpt:
Subjects are diagnosed with neuropathic pain (chronic and ongoing for more than 3 months in contrast to an acute injury of nerve or nervous system).
In case of low back pain (mixed pain) a possible, probable or definite neuropathic pain component can be diagnosed via screening tools at screening/baseline visits, e.g. PAIN DETECT, LANSS, DN-4).
A 12 week study is designed to compare 5-Methyl-1H-pyrazole-3-carboxylic acid (4-hydroxy-phenyl)-amide (Compound 1) to placebo and to a standard (pregabalin).
There are 2-3 dosing arms for Compound 1 (including 1000 and 2000 mg/day).

For `Cc1cc(C(=O)Nc2ccc(O)cc2)n[nH]1` [Compound 1, 5-Methyl-1H-pyrazole-3-carboxylic acid (4-hydroxy-phenyl)-amide], the “nociceptive behaviors in Phase II of the rat formalin test” value in series [1] was “inhibited nociceptive behaviors”. Further, in series [2] (300 mg/kg and 600 mg/kg, orally, single dose 1 h before carrageenan, FIG. 2A), the “carrageenan-induced paw-edema (paw volume)” value is on record as “dose-relatedly inhibited carrageenan-induced paw-edema”. Further, the “AUC of paw volume data, 300 mg/kg dose compared to 600 mg/kg dose” value in series [2] (FIG. 2B) was “statistically significant difference”. In addition, the “duration of the effect of a single oral dose” value in series [2] (single oral dose, paw-edema inhibition) was more than 8 h. For the same compound, the “Pain intensity difference from baseline (PID) score compared with 1000 mg acetaminophen” value in series [3] was “significantly greater and longer lasting PID score”. This compound also showed a half-life in series [4] of approximately 10 h. Further, the “mechanical hypersensitivity (50% threshold force for paw withdrawal)” value in series [5] is recorded as “mechanical hypersensitivity is reduced”. Further, the “pain intensity and signs and symptoms of neuropathy/hyperexcitability vs. placebo and standard (pregabalin)” value in series [6] was “shows improvement vs. placebo and improvement or comparable effects vs. standard”.
